The assay relates to ethanol-induced gastric ulceration in male Wister rats. In words: Antiulcerogenic activity, ethanol-induced gastric ulcer model. Particulars: 100 mg/kg orally; for No. of ulcers: three doses before ethanol 50% 10 ml/kg, mean ± SD, n = 6; for Curative ratio: versus ethanol control; for Antiulcerogenic activity (in words): isolated compounds compared with reference drugs at 100 mg/kg. In kind it is in vivo. On the procedure:
The antiulcerogenic activity of the total alcohol extract of Euphorbia cuneata was studied using ethanol-induced ulcer model at doses of 125, 250 and 500 mg/kg. […] The antioxidant properties to the total alcohol extract and the isolated compounds were evaluated using DPPH radical scavenging activity test. The liver and kidney functions were studied.
Male Wister rats (180-200 g) were used. […] Animals were divided into groups each of 6 rats and starved for 48 h before use to ensure an empty stomach. To avoid dehydration during the period of fasting, rats were supplied with sucrose (BDH) 8% (w/v) solution in NaCl (BDH) 0.2% (w/v), which was removed one hour before experimentation. The 1st group was kept as a normal control, while the 2nd one was kept as a positive control. Groups 3rd to 5th received the alcohol extract of E. cuneata in doses of 125, 250 and 500 mg/kg orally. […] The last three groups of rats were given ranitidine, apigenin and naringin orally as reference drugs in a dose of 100 mg/kg.
Two doses were given in the first day at 08:00 and 16:00 clock; a third dose was given on the second day 1.5 h before induction of gastric ulceration. All rats except the normal control were given ethanol (Merck) 50% (v/v) (in distilled water) in a dose of 10 ml/kg orally to induce gastric ulceration. Normal control rats received equivolumes of distilled water only at the same time intervals. One hour after ethanol administration, all rats were killed by an overdose of chloroform and the stomachs were rapidly removed, opened along their greater curvature and gently rinsed under running tap water. Lesions in the glandular part of the stomach were measured under an illuminated magnifying microscope (10×). Long lesions were counted and their lengths were measured. Petechial lesions were counted, and then each five petechial lesions were taken as 1 mm of ulcer. To calculate the ulcer index (mm), the sum of the total length of long ulcers and petechial lesions in each group of rats was divided by its number. The curative ratio was determined according to the formula: […]
The results obtained were statistically analyzed using “t” test.

The values below come from patent US9233096B2, “Method of providing an anti-ulcer treatment with extracts and isolated flavonoids from Euphorbia cuneata” (King Saud University, priority 2011, dated 2016).

Consider `CNC(=C[N+](=O)[O-])NCCSCc1ccc(CN(C)C)o1` [Rantidine], for which the No. of ulcers was 3.200 ± 0.800 and the Curative ratio was determined as 81.20.

As to Aromadendrin (2,3-dihydro-kaempferol), the “Antiulcerogenic activity (in words)” value is “as effective as naringin, apigenin and ranitidine”; the No. of ulcers is given as 3.558 ± 0.640; the Curative ratio turned out to be 79.10.

Turning to `O=c1cc(-c2ccc(O)cc2)oc2cc(O)cc(O)c12` [Apigenin], the No. of ulcers came out at 4.122 ± 0.432 and the Curative ratio turned out to be 75.78.

For the compound `C[C@@H]1O[C@@H](O[C@H]2[C@H](Oc3cc(O)c4c(c3)O[C@H](c3ccc(O)cc3)CC4=O)O[C@H](CO)[C@@H](O)[C@@H]2O)[C@H](O)[C@H](O)[C@H]1O` [Naringin], the No. of ulcers is on record as 3.167 ± 0.872 and the Curative ratio stood at 81.40.

For `COc1ccc(-c2cc(=O)c3c(O)cc(O[C@@H]4O[C@H](CO[C@@H]5O[C@@H](C)[C@H](O)[C@@H](O)[C@H]5O)[C@@H](O)[C@H](O)[C@H]4O)cc3o2)cc1O` [4′-O-methoxy-luteolin-7-O-rhamnoglucoside], the “Antiulcerogenic activity (in words)” value is recorded as “most effective”, the No. of ulcers stood at 2.003 ± 0.072 and the Curative ratio came to 88.23.
